Data as given in publication PMC10794137, “A new antibiotic traps lipopolysaccharide in its intermembrane transporter” (Nature, 2024).
pKi: −log10 of the molar value.

Columns and labels:
[1] = target: His-tagged LptB2FG (ablLptB2FG) in the presence of LPS (Acinetobacter baylyi, UniProt Q6FFD6+Q6FFD7); experiment: biochemical; format: binding
Experimental: The binding of radioligand [^3H]-RO7223280 to ablLptB2FG and ablLptB2FGC was measured by bead-based SPA. All steps were performed in SEC buffer (20 mM Tris pH 7.5, 300 mM NaCl, 5% glycerol, 0.5 mM TCEP, 0.05% DDM ± 10 µM E.coli J5 LPS(Rc) […] (Enzo Life Sciences)) and at 4 °C unless otherwise indicated. Purified protein was first incubated with Copper PVT HIS-tag beads (Perkin Elmer) for 1.5 h under gentle rotation. Twelve radioligand concentrations were added to the PVT–protein mix and incubated for another 30 min. […] The SPA plates were sealed (TopSeal, Perkin Elmer) and stored at 4 °C overnight. Before the measurement, plates were mixed on a shaker for 20 min, 750 rpm at room temperature and the seal was thoroughly wiped with antistatic spray to reduce electrostatic events. Scintillation data were recorded with a Topcount NXT C384, in the form of three independent replicates each consisting of three technical triplicates. Specific binding was calculated by subtracting non-specific binding raw counts from total binding raw counts. The dissociation constant Kd and standard deviation of the three independent replicates are reported and were calculated by the GraphPad Prism ‘One site – specific binding’ tool.
Displacement values were normalized by including nine wells containing […] (defined as 100% competition) and nine wells containing 8 uM radioligand only (defined as 0% competition). […] The Hill coefficient was used as a quality control metric (theoretically, nH = 1 for a 1:1 competitive inhibitor) and determined with the ‘[Inhibitor] vs. response -- Variable slope (four parameters)’ tool.

LptB2FGΔTM-LptC = experiment: LPS release assay, LptB2FG-ΔTM-C; format: biochemical, Acinetobacter baylyi; details: complex lacking LptC TM helix
Experimental: (§1) Proteoliposomes were prepared as described previously. Aqueous E. coli polar lipid extract (Avanti Polar Lipids) (30 mg ml^−1) and aqueous LPS from E. coli EH100 (Ra mutant; Sigma) (2 mg ml^−1) were sonicated briefly for homogenization. For experiments testing the effect of LPS structure, we used LPS isolated from either GKM374 (BL21DE3 eptA::catR arnA::kanR eptC::gentR) or TXM418 (BL21DE3 eptA::catR arnA::FRT eptB::gentR lpxM::kanR) as described previously. A mixture of 20 mM Tris-HCl (pH 8.0), 150 mM NaCl, 7.5 mg ml^−1 of E. coli polar lipids, 0.5 mg ml^−1 of LPS and 0.25% DDM was prepared and kept on ice for 10 min. Purified LptB2FGC or LptB2FG was added to a final concentration of 0.86 μM and the mixture was left on ice for 20 min. The mixture was diluted 100-fold with cold 20 mM Tris-HCl (pH 8.0) and 150 mM NaCl and kept on ice for 20 min. The proteoliposomes were pelleted (300,000g, 2 h, 4 °C), resuspended in 20 mM Tris-HCl (pH 8.0) and 150 mM NaCl, diluted 100× and centrifuged (300,000g, 2 h, 4 °C). The pellets were resuspended in a mixture of 20 mM Tris-HCl (pH 8.0), 150 mM NaCl and 10% glycerol (250 μl per 100 μl of the original predilution solution), homogenized by sonication, flash frozen and stored at −80 °C until use.
LptC(ΔTM) was purified largely as previously described. Briefly, Bl21 (λDE3) E. coli cells containing pET22/42-LptC(ΔTM)-His7 were grown to an OD600 of approximately 0.6 at 37 °C in LB media containing 50 μg ml^−1 of carbenicillin. Cells were then induced with 50 μM IPTG; allowed to grow for 2 h; harvested and resuspended in lysis buffer (50 mM Tris pH 7.4, 300 mM NaCl, 0.1 mM EDTA). Lysozyme, DNaseI and PMSF were added to final concentrations of 100 µg ml^−1, 50 µg ml^−1 and 1 mM, respectively. Cells were homogenized and subjected to passage through an EmulsiFlex-C3 high-pressure cell disruptor three times. The cell lysate was centrifuged (10,000g, 10 min) and the supernatant was further centrifuged (100,000g, 1 h). […]
The amounts of release of LPS from proteoliposomes to LptA were measured as previously described. […]

LptB2FG = experiment: ATPase assay (molybdate), LptB2FG proteoliposomes; format: biochemical, Acinetobacter baylyi; details: LptB2FG liposomes, in presence of LPS
Experimental: as §1
ATPase assays were done using a modified molybdate method, as previously reported, with slight modifications. Assays used 30% proteoliposomes (by volume) in a mixture containing 50 mM Tris-HCl (pH 8.0), 500 mM NaCl, 10% glycerol and 2 mM MgCl2. Proteoliposome-containing reaction mixture was incubated with drug at room temperature for 10 min, as applicable. Reactions were initiated by the addition of ATP to a final concentration of 5 mM and run at 30 °C. Aliquots (5 µl) were taken at 0, 15, 30 and 45 min. […] The amounts of Pi were determined using a colorimetric method and potassium phosphate was used as a standard. […] The absorbance at 850 nm was measured using a Spectramax Plus 384 (Molecular Devices) after 20 min. Error bars indicate the standard deviations of the average rates measured over three biological replicates.

LptB2FGC = experiment: ATPase assay (molybdate), LptB2FGC proteoliposomes; format: biochemical, Acinetobacter baylyi; details: for Effect on ATPase activity: LptB2FGC liposomes, in presence of LPS
Experimental: as §1
ATPase assays were done using a modified molybdate method, as previously reported, with slight modifications. Assays used 30% proteoliposomes (by volume) in a mixture containing 50 mM Tris-HCl (pH 8.0), 500 mM NaCl, 10% glycerol and 2 mM MgCl2. Proteoliposome-containing reaction mixture was incubated with drug at room temperature for 10 min, as applicable. Reactions were initiated by the addition of ATP to a final concentration of 5 mM and run at 30 °C. Aliquots (5 µl) were taken at 0, 15, 30 and 45 min. Reactions were quenched with an equal volume of 12% SDS. The amounts of Pi were determined using a colorimetric method and potassium phosphate was used as a standard. Reagents were obtained from Sigma-Aldrich. After the addition of SDS, a mixture containing 10 µl of 30 mg ml^−1 of ascorbic acid, 0.5 N HCl, 5 mg ml^−1 of ammonium molybdate and 6% SDS was added. The samples were incubated at room temperature for 7 min and 15 µl of an aqueous solution containing 20 mg ml^−1 of sodium citrate tribasic dihydrate, 2 mg ml^−^1 of sodium arsenite and 2% (vol/vol) acetic acid was added. The absorbance at 850 nm was measured using a Spectramax Plus 384 (Molecular Devices) after 20 min. Error bars indicate the standard deviations of the average rates measured over three biological replicates.

LptB2FG-ΔTM-C = experiment: ATPase assay (molybdate), LptB2FG-ΔTM-C proteoliposomes; format: biochemical, Acinetobacter baylyi; details: LptB2FG-ΔTM-C liposomes, in presence of LPS

Chain of His-tagged LptB2FG (ablLptB2FG) in the presence of LPS (Q6FFD6 entry or part of it): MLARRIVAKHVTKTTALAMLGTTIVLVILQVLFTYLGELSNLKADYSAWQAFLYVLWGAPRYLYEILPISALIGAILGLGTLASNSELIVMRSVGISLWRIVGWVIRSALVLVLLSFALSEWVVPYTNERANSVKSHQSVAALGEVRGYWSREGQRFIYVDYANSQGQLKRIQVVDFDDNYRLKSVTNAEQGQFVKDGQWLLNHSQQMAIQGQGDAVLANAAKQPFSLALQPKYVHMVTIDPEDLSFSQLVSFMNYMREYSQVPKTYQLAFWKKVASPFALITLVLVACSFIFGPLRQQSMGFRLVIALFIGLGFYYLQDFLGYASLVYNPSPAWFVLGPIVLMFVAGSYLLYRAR
Chain of His-tagged LptB2FG (ablLptB2FG) in the presence of LPS (Q6FC66 entry or part of it, further chain): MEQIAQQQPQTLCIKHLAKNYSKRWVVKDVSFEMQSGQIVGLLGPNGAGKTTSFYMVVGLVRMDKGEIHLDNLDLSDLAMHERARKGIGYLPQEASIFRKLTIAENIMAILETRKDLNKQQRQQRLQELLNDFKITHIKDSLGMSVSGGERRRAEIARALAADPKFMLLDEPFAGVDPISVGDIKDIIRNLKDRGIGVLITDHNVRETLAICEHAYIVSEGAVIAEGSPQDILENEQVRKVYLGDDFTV
Chain of His-tagged LptB2FG (ablLptB2FG) in the presence of LPS (Q6FFD7 entry or part of it): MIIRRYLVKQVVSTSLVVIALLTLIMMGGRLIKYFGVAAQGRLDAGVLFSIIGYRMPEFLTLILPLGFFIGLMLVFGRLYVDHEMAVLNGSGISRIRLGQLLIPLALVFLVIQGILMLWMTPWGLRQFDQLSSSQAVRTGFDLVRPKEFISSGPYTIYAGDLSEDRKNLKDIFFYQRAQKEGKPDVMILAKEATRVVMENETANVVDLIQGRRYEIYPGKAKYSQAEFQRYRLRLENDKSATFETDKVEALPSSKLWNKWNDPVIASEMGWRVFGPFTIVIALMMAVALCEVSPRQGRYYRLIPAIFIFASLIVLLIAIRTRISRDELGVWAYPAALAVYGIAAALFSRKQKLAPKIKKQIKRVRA

SMILES | pKi [1] | Inhibition of LPS transport to LptA (LptB2FGΔTM-LptC) | Effect on ATPase activity (LptB2FG) | Effect on ATPase activity with ΔLpxM LPS (LptB2FGC; LptB2FGC liposomes with LPS isolated from a ΔLpxM strain) | Effect on ATPase activity (LptB2FGC) | Effect on ATPase activity (LptB2FG-ΔTM-C)
CN1C(=O)[C@H](CCCCN)NC(=O)[C@H](CCCN)NCc2cccnc2Sc2c(Cl)ccc(-c3ccc(N)nc3)c2CNC(=O)[C@@H]1Cc1c[nH]c2ccccc12 [Compound 1] | 7.46 | inhibited | increases the ATPase activity | resistant | increases the ATPase activity | increases the ATPase activity
CN1C(=O)[C@H](CCCCN)NC(=O)[C@H](CCCN)NCc2cccnc2Sc2c(Cl)ccc(Cl)c2CNC(=O)[C@@H]1Cc1c[nH]c2ccccc12 [Compound 3] | 7.25 | inhibited | increases the ATPase activity | – | does not affect the ATPase | increases the ATPase activity
CN1C(=O)[C@H](CCCCN)NC(=O)[C@H](CCCN)NCc2cccnc2Sc2cccc(-c3ccc(C(=O)O)cc3)c2CNC(=O)[C@@H]1Cc1c[nH]c2ccccc12 [Compound 2, Zosurabalpin] | 7.46 | inhibited | increases the ATPase activity | – | increases the ATPase activity | increases the ATPase activity
